Test results: patent US7649000B2, “Selective dipeptide inhibitors of kallikrein” (Vantia Limited, priority 2002, dated 2010)
Structures can show the parent of a compound that is named as a salt.

Columns and labels:
Format in all cases: biochemical
Human Tissue Kallikrein = Human Tissue Kallikrein (Homo sapiens, UniProt P06870); test: Enzyme selectivity: inhibition of human tissue kallikrein (substrate S-2266); conditions: for Selectivity: (Ki for Human Tissue Kallikrein)/(Ki for plasma kallikrein); for Ki: Human Tissue Kallikrein, substrate S-2266
Method: (§1) Inhibition of plasma kallikrein activity in vitro was determined using standard published methods (see e.g. Johansen et al., Int. J. Tiss. […] Shori et al., Biochem. […] Stüjrzebecher et al., Biol. Chem. Hoppe-Seyler, 1992, 373, 1025). Human plasma kallikrein (Callbiochem) was incubated at 37° C. with three different concentrations of the chromogenic substrate S-2302 (Chromogenix AB) and various concentrations of the test compound. Residual enzyme activity (initial rate of reaction) was determined by measuring the change in optical absorbance at 405 nm and the inhibitory constant Ki for the test compound as determined from a Dixon plot (Dixon, Biochem. […] Determination of Enzyme Selectivity Selected compounds were further screened for inhibitory activity against other trypsin-like proteases following the method of Example 59 and using the appropriate enzyme and chromogenic substrate (Chromogenix AB). The selectivity is given by: Selectivity=(Ki for test enzyme)/(Ki for plasma kallikrein)

Human plasma kallikrein = biological target: T1, Human plasma kallikrein (Homo sapiens, UniProt P03952); test: Determination of the inhibition constant Ki for plasma kallikrein (chromogenic substrate S-2302, Dixon plot); conditions: substrate S-2302, 37° C.
T1 construct: purchased Callbiochem (Calbiochem)
Method: Determination of the Inhibition Constant Ki for Plasma Kallikrein
(§2) Inhibition of plasma kallikrein activity in vitro was determined using standard published methods (see e.g. Johansen et al., Int. J. Tiss. Reac. 1986, 8, 185; Shori et al., Biochem. Pharmacol., 1992, 43, 1209; Stüjrzebecher et al., Biol. Chem. Hoppe-Seyler, 1992, 373, 1025). Human plasma kallikrein (Callbiochem) was incubated at 37° C. with three different concentrations of the chromogenic substrate S-2302 (Chromogenix AB) and various concentrations of the test compound. Residual enzyme activity (initial rate of reaction) was determined by measuring the change in optical absorbance at 405 nm and the inhibitory constant Ki for the test compound as determined from a Dixon plot (Dixon, Biochem. J., 1953, 55, 170).

Trypsin = biological target: T2, Trypsin (Bos taurus, UniProt P00760); test: Enzyme selectivity: inhibition of trypsin (substrate S-2222)
T2 sequence (P00760 24-246): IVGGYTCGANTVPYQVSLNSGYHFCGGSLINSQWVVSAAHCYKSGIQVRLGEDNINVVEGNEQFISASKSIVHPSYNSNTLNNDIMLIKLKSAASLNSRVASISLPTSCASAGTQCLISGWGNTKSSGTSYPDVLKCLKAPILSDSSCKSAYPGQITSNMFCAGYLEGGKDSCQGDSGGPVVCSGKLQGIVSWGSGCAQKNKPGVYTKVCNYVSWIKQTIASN
Method: as §1

Thrombin = Thrombin (Homo sapiens, UniProt P00734); test: Enzyme selectivity: inhibition of thrombin (substrate S-2238)
Method: as §2
Determination of Enzyme Selectivity
Selected compounds were further screened for inhibitory activity against other trypsin-like proteases following the method of Example 59 and using the appropriate enzyme and chromogenic substrate (Chromogenix AB). The selectivity is given by: Selectivity=(Ki for test enzyme)/(Ki for plasma kallikrein)

Plasmin = Plasmin (Homo sapiens, UniProt P00747); test: Enzyme selectivity: inhibition of plasmin (substrate S-2390)
Method: as §1

T1 sequence (P03952 391-638 limits assumed): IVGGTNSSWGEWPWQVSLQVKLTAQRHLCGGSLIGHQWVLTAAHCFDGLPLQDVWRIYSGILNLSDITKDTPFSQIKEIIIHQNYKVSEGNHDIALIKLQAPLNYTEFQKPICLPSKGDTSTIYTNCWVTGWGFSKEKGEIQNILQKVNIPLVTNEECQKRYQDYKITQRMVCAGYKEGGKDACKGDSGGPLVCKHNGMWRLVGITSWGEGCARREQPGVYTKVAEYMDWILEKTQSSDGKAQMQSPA
T1 sequence (P03952 20-390 partner limits assumed): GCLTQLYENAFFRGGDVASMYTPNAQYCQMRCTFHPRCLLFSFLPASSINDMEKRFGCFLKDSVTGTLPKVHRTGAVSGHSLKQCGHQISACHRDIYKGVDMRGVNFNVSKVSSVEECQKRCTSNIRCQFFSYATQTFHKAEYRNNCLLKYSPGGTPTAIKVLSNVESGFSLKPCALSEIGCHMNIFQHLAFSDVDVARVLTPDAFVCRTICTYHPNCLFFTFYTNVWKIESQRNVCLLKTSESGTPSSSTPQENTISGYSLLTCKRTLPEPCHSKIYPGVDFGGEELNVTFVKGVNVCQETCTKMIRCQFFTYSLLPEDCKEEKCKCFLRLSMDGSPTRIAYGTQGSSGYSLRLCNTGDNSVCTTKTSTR
Human Tissue Kallikrein, sequence (P06870 25-262): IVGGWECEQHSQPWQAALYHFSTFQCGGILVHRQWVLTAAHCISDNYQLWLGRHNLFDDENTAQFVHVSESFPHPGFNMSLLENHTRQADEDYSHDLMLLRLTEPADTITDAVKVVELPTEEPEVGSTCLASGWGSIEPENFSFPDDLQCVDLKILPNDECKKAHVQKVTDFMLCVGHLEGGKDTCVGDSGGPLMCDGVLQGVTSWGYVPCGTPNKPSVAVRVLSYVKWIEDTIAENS
Plasmin, sequence (P00747 97-810): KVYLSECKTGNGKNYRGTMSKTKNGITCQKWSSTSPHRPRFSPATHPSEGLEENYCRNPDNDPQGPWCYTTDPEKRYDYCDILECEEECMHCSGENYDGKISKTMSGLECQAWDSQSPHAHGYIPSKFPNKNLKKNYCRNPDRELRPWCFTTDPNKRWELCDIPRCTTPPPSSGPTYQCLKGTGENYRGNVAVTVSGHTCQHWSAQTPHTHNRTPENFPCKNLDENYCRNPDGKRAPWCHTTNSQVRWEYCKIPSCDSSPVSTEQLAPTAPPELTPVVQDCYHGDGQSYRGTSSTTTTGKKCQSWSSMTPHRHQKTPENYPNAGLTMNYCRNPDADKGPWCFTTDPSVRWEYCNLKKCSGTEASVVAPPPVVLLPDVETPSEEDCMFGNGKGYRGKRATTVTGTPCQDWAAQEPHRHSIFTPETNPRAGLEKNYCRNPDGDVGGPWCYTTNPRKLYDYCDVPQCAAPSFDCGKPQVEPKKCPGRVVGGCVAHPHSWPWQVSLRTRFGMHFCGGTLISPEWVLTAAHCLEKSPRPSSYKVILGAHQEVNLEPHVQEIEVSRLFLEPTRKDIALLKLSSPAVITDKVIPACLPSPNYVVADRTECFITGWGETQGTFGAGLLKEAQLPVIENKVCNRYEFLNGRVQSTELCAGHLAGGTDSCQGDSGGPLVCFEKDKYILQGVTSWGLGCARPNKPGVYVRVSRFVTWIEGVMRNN

SMILES	Selectivity (Human Tissue Kallikrein)	Ki (Human Tissue Kallikrein)	Ki (Human plasma kallikrein)	further results
CCOc1ccc(C[C@@H](N)C(=O)N[C@@H](Cc2ccccc2)C(=O)NC2CCN(C(=N)N)CC2)cc1.O=C(O)C(F)(F)F [Example 1, (2′S,2″R)-4-(2′-(2″-Amino-3″-(4′″-ethoxyphenyl)propanoylamino)-3′-phenylpropanoyl-amino)piperidine-1-carboxamidine trifluoroacetate]	10,000	45000 nM	4.5 nM	
COC(=O)CN[C@H](CC1CCCCC1)C(=O)N[C@@H](Cc1ccccc1)C(=O)NC1CCN(C(=N)N)CC1 [Example 2, (2′S,2″R)-4-(2′-(3″-Cyclohexyl-2″-(methyloxycarbonylmethylamino)propanoylamino)-3′-phenylpropanoylamino)piperidine-1-carboxamidine trifluoroacetate]			66 nM	
N=C(N)N1CCC(NC(=O)[C@H](Cc2ccccc2)NC(=O)[C@@H](CC2CCCCC2)NCC(=O)O)CC1.O=C(O)C(F)(F)F [Example 3, (2′S,2″R)-4-(2′-(2″-(Carboxymethylamino)-3″-cyclohexylpropanoylamino)-3′-phenyl-propanoylamino)piperidine-1-carboxamidine trifluoroacetate]	2,000	6000 nM	3 nM	Selectivity (Trypsin; (Ki for Trypsin)/(Ki for plasma kallikrein)): 270; Ki (Trypsin; Trypsin, substrate S-2222): 825 nM; Selectivity (Thrombin; (Ki for Thrombin)/(Ki for plasma kallikrein)): 100; Ki (Thrombin; Thrombin, substrate S-2238): 310 nM; Selectivity (Plasmin; (Ki for Plasmin)/(Ki for plasma kallikrein)): 1,000; Ki (Plasmin; Plasmin, substrate S-2390): 3200 nM
CCOc1ccc(C[C@@H](NC(=O)c2ccccc2)C(=O)N[C@@H](Cc2ccccc2)C(=O)NC2CCN(C(=N)N)CC2)cc1.O=C(O)C(F)(F)F [Example 4, (2′S,2″R)-4-(2′-(2″-Benzoylamino-3″-(4′″-ethoxyphenyl)propanoylamino)-3′-phenyl-propanoylamino)piperidine-1-carboxamidine trifluoroacetate]	13,000	18500 nM	1.4 nM	
CCOc1ccc(C[C@@H](N)C(=O)N[C@H](C(=O)NC2CCN(C(=N)N)CC2)[C@H](O)c2ccccc2)cc1.O=C(O)C(F)(F)F [Example 5, (2′S,2″R, 3′R)-4-(2′-(2″-Amino-3″-(4′″-ethoxyphenyl)propanoylamino)-3′-hydroxy-3′-phenyl-propanoylamino)piperidine-1-carboxamidine trifluoroacetate]	>10,000	> 70000 nM	6.6 nM	
CCOc1ccc(C[C@@H](N)C(=O)N[C@H](C(=O)NC2CCN(C(=N)N)CC2)[C@H](OC)c2ccccc2)cc1 [Example 6, (2′S,2″R,3′R)-4-(2′-(2″-Amino-3″-(4′″-ethoxyphenyl)propanoylamino)-3′-methoxy-3′-phenyl-propanoylamino)piperidine-1-carboxamidine trifluoroacetate]			25 nM	
N=C(N)N1CCC(NC(=O)[C@H](Cc2ccccc2)NC(=O)[C@@H](CC2CCC3CCCCC3C2)NCC(=O)O)CC1 (some centres unmarked) [Example 14]			2.6 nM	
COC(=O)CN[C@H](CC1CCC2CCCCC2C1)C(=O)N[C@@H](Cc1ccccc1)C(=O)NC1CCN(C(=N)N)CC1 (some centres unmarked) [Example 15]			19 nM	
N=C(N)N1CCC(NC(=O)[C@H](Cc2ccccc2)NC(=O)[C@H](N)Cc2ccc(OCc3ccccc3)cc2)CC1 [Example 32]			5.5 nM	
CCCOc1ccc(C[C@@H](N)C(=O)N[C@@H](Cc2ccccc2)C(=O)NC2CCN(C(=N)N)CC2)cc1 [Example 34]			7 nM	
CCOc1ccc(C[C@@H](NC)C(=O)N[C@@H](Cc2ccccc2)C(=O)NC2CCN(C(=N)N)CC2)cc1 [Example 39]	930	14000 nM	15 nM	
CCOc1ccc(C[C@@H](NS(C)(=O)=O)C(=O)N[C@@H](Cc2ccccc2)C(=O)NC2CCN(C(=N)N)CC2)cc1 [Example 40]	210	1950 nM	9 nM	
CCOc1ccc(C[C@@H](NS(=O)(=O)c2ccccc2)C(=O)N[C@@H](Cc2ccccc2)C(=O)NC2CCN(C(=N)N)CC2)cc1 [Example 42]	1,500	6800 nM	4.5 nM	
CCOc1ccc(C[C@@H](NC(C)=O)C(=O)N[C@@H](Cc2ccccc2)C(=O)NC2CCN(C(=N)N)CC2)cc1 [Example 43]	9,400	69000 nM	7.3 nM	
CCCC(=O)N[C@H](Cc1ccc(OCC)cc1)C(=O)N[C@@H](Cc1ccccc1)C(=O)NC1CCN(C(=N)N)CC1 [Example 44]			4.1 nM	
CCOc1ccc(C[C@@H](NC(=O)CC)C(=O)N[C@@H](Cc2ccccc2)C(=O)NC2CCN(C(=N)N)CC2)cc1 [Example 45]	16,000	49000 nM	3 nM	
CCOc1ccc2c(c1)CN[C@@H](C(=O)N[C@@H](Cc1ccccc1)C(=O)NC1CCN(C(=N)N)CC1)C2 [Example 52]			18 nM	
